Source: the NIST ThermoML archive (doi:10.1021/je800193a)

Assay: excess molar enthalpy (molar enthalpy of mixing); xn = mol fraction of the nth substance listed
Details: 101.3 kPa, Liquid, Flow calorimetry

CC(=O)c1ccccc1 [acetophenone] + CCCCO
excess molar enthalpy [kJ/mol]
Details | 298.2 K | 313.2 K | 328.2 K | 338.2 K | 348.2 K
x1 = 0.0996 | 0.624 | 0.718 | 0.784 | 0.809 | 0.824
x1 = 0.2005 | 1.01 | 1.18 | 1.32 | 1.36 | 1.4
x1 = 0.3001 | 1.25 | 1.49 | 1.65 | 1.73 | 1.77
x1 = 0.3501 | 1.33 | 1.59 | 1.76 | 1.84 | 1.89
x1 = 0.4002 | 1.38 | 1.66 | 1.84 | 1.92 | 1.97
x1 = 0.4504 | 1.42 | 1.7 | 1.89 | 1.97 | 2.02
x1 = 0.5005 | 1.44 | 1.72 | 1.91 | 1.98 | 2.03
x1 = 0.5506 | 1.44 | 1.7 | 1.89 | 1.96 | 2
x1 = 0.6006 | 1.41 | 1.67 | 1.84 | 1.9 | 1.94
x1 = 0.6504 | 1.36 | 1.6 | 1.75 | 1.81 | 1.84
x1 = 0.7001 | 1.29 | 1.5 | 1.64 | 1.67 | 1.7
x1 = 0.8 | 1.06 | 1.19 | 1.28 | 1.3 | 1.32
x1 = 0.9001 | 0.646 | 0.709 | 0.738 | 0.751 | 0.771

CC(=O)c1ccccc1 [acetophenone] + C1CCCCC1
excess molar enthalpy [kJ/mol]
Details | 298.2 K | 313.2 K | 328.2 K | 338.2 K | 348.2 K
x1 = 0.1004 | 0.752 | 0.797 | 0.807 | 0.817 | 0.819
x1 = 0.1999 | 1.11 | 1.19 | 1.24 | 1.27 | 1.27
x1 = 0.2999 | 1.28 | 1.41 | 1.48 | 1.52 | 1.52
x1 = 0.3499 | 1.33 | 1.46 | 1.54 | 1.58 | 1.59
x1 = 0.4002 | 1.35 | 1.49 | 1.57 | 1.61 | 1.62
x1 = 0.4497 | 1.35 | 1.49 | 1.57 | 1.61 | 1.62
x1 = 0.4996 | 1.34 | 1.47 | 1.55 | 1.58 | 1.6
x1 = 0.5498 | 1.3 | 1.43 | 1.5 | 1.54 | 1.55
x1 = 0.6005 | 1.25 | 1.37 | 1.43 | 1.46 | 1.48
x1 = 0.6503 | 1.18 | 1.28 | 1.33 | 1.36 | 1.38
x1 = 0.7004 | 1.09 | 1.17 | 1.21 | 1.24 | 1.25
x1 = 0.8005 | 0.837 | 0.873 | 0.889 | 0.911 | 0.927
x1 = 0.8995 | 0.475 | 0.49 | 0.493 | 0.506 | 0.511
